Columns and labels:
Experiment in all cases: Preemergent activity
Assay type in all cases: in vivo
Wheat = conditions: Triticum aestivum, pre-emergence, read-out: Preemergence Control; for plant injury at 70 g/ha: 0.07 kgs/hectare; for plant injury at 140 g/ha: 0.14 kgs/hectare; for plant injury at 280 g/ha: 0.28 kgs/hectare; for plant injury at 560 g/ha: 0.56 kgs/hectare; for plant injury at 1120 g/ha: 1.12 kgs/hectare
Protocol: (§1) In a representative operation, 2-[4-(2-fluoro-4-trifluoromethylphenoxy)phenoxy]propionic acid methyl ester, to be utilized in a series of tests, is dissolved in acetone to one half of the final volume (twice the final concentration) to be used and the acetone solution in each case is admixed with an equal volume of water containing 0.1 percent by weight of Tween-20 surface active material (Tween-20 is a trademark of Atlas Chemical Company). The composition, generally in the nature of an emulsion, was employed to treat separate respective seed beds of sandy loam soil of good nutrient content wherein each seed bed contained separate groups of good viable seeds, each group being of one of a known plant species. The various beds were positioned side by side and exposed to substantially identical conditions of temperature and light. Each bed was maintained so as to prevent any interaction with the test compound in different seed beds. Each seed bed was treated with the composition as a spray employing conventional spraying equipment to deposit a predetermined amount of the compound uniformly throughout the surface of the bed. Another seed bed was treated only with the acetone-Tween-20 water mixture with no chemical added to serve as a control.

Johnson Grass = conditions: Sorghum halepense, pre-emergence, read-out: Preemergence Control; for pest or weed control at 70 g/ha: 0.07 kgs/hectare; for pest or weed control at 140 g/ha: 0.14 kgs/hectare; for pest or weed control at 280 g/ha: 0.28 kgs/hectare; for pest or weed control at 560 g/ha: 0.56 kgs/hectare; for pest or weed control at 1120 g/ha: 1.12 kgs/hectare
Protocol: as §1

Wild Oats = conditions: Avena fatua, pre-emergence, read-out: Preemergence Control; for pest or weed control at 70 g/ha: 0.07 kgs/hectare; for pest or weed control at 140 g/ha: 0.14 kgs/hectare; for pest or weed control at 280 g/ha: 0.28 kgs/hectare; for pest or weed control at 560 g/ha: 0.56 kgs/hectare; for pest or weed control at 1120 g/ha: 1.12 kgs/hectare
Protocol: as §1

Yellow Foxtail = conditions: Setaria, pre-emergence, read-out: Preemergence Control; for pest or weed control at 70 g/ha: 0.07 kgs/hectare; for pest or weed control at 140 g/ha: 0.14 kgs/hectare; for pest or weed control at 280 g/ha: 0.28 kgs/hectare; for pest or weed control at 560 g/ha: 0.56 kgs/hectare; for pest or weed control at 1120 g/ha: 1.12 kgs/hectare
Protocol: as §1

Barnyard Grass = conditions: Echinochloa crus-galli, pre-emergence, read-out: Preemergence Control; for pest or weed control at 70 g/ha: 0.07 kgs/hectare; for pest or weed control at 140 g/ha: 0.14 kgs/hectare; for pest or weed control at 280 g/ha: 0.28 kgs/hectare; for pest or weed control at 560 g/ha: 0.56 kgs/hectare; for pest or weed control at 1120 g/ha: 1.12 kgs/hectare
Protocol: as §1

In the case of `CC(Oc1ccc(Oc2ccc(Br)cc2F)cc1)C(=O)OCCN(C)C` (centres unmarked) [O(CH2)2 N(CH3)2], the plant injury at 70 g/ha (Wheat) is reported as 0%, the plant injury at 140 g/ha (Wheat) is reported as 0% and the plant injury at 280 g/ha (Wheat) is reported as 0%. For the same molecule, the plant injury at 560 g/ha (Wheat) was 0%, the plant injury at 1120 g/ha (Wheat) was 0% and the pest or weed control at 70 g/ha (Johnson Grass) was 0%. The pest or weed control at 140 g/ha (Johnson Grass) was 0%, the pest or weed control at 280 g/ha (Johnson Grass) was 60% and the pest or weed control at 560 g/ha (Johnson Grass) was 95%. For the same molecule, the pest or weed control at 1120 g/ha (Johnson Grass) was 100%, the pest or weed control at 70 g/ha (Wild Oats) was 0% and the pest or weed control at 140 g/ha (Wild Oats) was 30%. For the same molecule, the pest or weed control at 280 g/ha (Wild Oats) was 30%, the pest or weed control at 560 g/ha (Wild Oats) was 90% and the pest or weed control at 1120 g/ha (Wild Oats) was 99%. For the same molecule, the pest or weed control at 70 g/ha (Yellow Foxtail) was 0%, the pest or weed control at 140 g/ha (Yellow Foxtail) was 0% and the pest or weed control at 280 g/ha (Yellow Foxtail) was 0%. It also gave a pest or weed control at 560 g/ha (Yellow Foxtail) of 100%, a pest or weed control at 1120 g/ha (Yellow Foxtail) of 100% and a pest or weed control at 70 g/ha (Barnyard Grass) of 70%. The pest or weed control at 140 g/ha (Barnyard Grass) was 100%, the pest or weed control at 280 g/ha (Barnyard Grass) was 100% and the pest or weed control at 560 g/ha (Barnyard Grass) was 100%. For the same molecule, the pest or weed control at 1120 g/ha (Barnyard Grass) was 100%.
`CCOCCOC(=O)C(C)Oc1ccc(Oc2ccc(Br)cc2F)cc1` (centres unmarked) [O(CH2)2 OC2 H5] gave a plant injury at 70 g/ha (Wheat) of 0%, a plant injury at 140 g/ha (Wheat) of 0% and a plant injury at 280 g/ha (Wheat) of 0%. The plant injury at 560 g/ha (Wheat) was 0%, the plant injury at 1120 g/ha (Wheat) was 20% and the pest or weed control at 70 g/ha (Johnson Grass) was 0%. For the same molecule, the pest or weed control at 140 g/ha (Johnson Grass) was 0%, the pest or weed control at 280 g/ha (Johnson Grass) was 0% and the pest or weed control at 560 g/ha (Johnson Grass) was 60%. For the same molecule, the pest or weed control at 1120 g/ha (Johnson Grass) was 60%, the pest or weed control at 70 g/ha (Wild Oats) was 0% and the pest or weed control at 140 g/ha (Wild Oats) was 30%. It also gave a pest or weed control at 280 g/ha (Wild Oats) of 30%, a pest or weed control at 560 g/ha (Wild Oats) of 100% and a pest or weed control at 1120 g/ha (Wild Oats) of 100%. For the same molecule, the pest or weed control at 70 g/ha (Yellow Foxtail) was 0%, the pest or weed control at 140 g/ha (Yellow Foxtail) was 0% and the pest or weed control at 280 g/ha (Yellow Foxtail) was 80%. It also gave a pest or weed control at 560 g/ha (Yellow Foxtail) of 100%, a pest or weed control at 1120 g/ha (Yellow Foxtail) of 100% and a pest or weed control at 70 g/ha (Barnyard Grass) of 0%. The pest or weed control at 140 g/ha (Barnyard Grass) was 90%, the pest or weed control at 280 g/ha (Barnyard Grass) was 95% and the pest or weed control at 560 g/ha (Barnyard Grass) was 100%. For the same molecule, the pest or weed control at 1120 g/ha (Barnyard Grass) was 100%.
`CCCCOC(=O)C(C)Oc1ccc(Oc2ccc(Br)cc2F)cc1` (centres unmarked) [O(CH2)3 CH3, Propionic acid: 2-(4-(4-bromo-2-fluorophenoxy)phenoxy), n-butyl ester] showed a plant injury at 70 g/ha (Wheat) of 0%, a plant injury at 140 g/ha (Wheat) of 0% and a plant injury at 280 g/ha (Wheat) of 0%. It also gave a plant injury at 560 g/ha (Wheat) of 30%, a plant injury at 1120 g/ha (Wheat) of 30% and a pest or weed control at 70 g/ha (Johnson Grass) of 0%. It also gave a pest or weed control at 140 g/ha (Johnson Grass) of 0%, a pest or weed control at 280 g/ha (Johnson Grass) of 65% and a pest or weed control at 560 g/ha (Johnson Grass) of 100%. It also gave a pest or weed control at 1120 g/ha (Johnson Grass) of 100%, a pest or weed control at 70 g/ha (Wild Oats) of 0% and a pest or weed control at 140 g/ha (Wild Oats) of 0%. It also gave a pest or weed control at 280 g/ha (Wild Oats) of 50%, a pest or weed control at 560 g/ha (Wild Oats) of 80% and a pest or weed control at 1120 g/ha (Wild Oats) of 100%. The pest or weed control at 70 g/ha (Yellow Foxtail) was 0%, the pest or weed control at 140 g/ha (Yellow Foxtail) was 40% and the pest or weed control at 280 g/ha (Yellow Foxtail) was 95%. For the same molecule, the pest or weed control at 560 g/ha (Yellow Foxtail) was 100%, the pest or weed control at 1120 g/ha (Yellow Foxtail) was 100% and the pest or weed control at 70 g/ha (Barnyard Grass) was 0%. The pest or weed control at 140 g/ha (Barnyard Grass) was 70%, the pest or weed control at 280 g/ha (Barnyard Grass) was 100% and the pest or weed control at 560 g/ha (Barnyard Grass) was 100%. It also gave a pest or weed control at 1120 g/ha (Barnyard Grass) of 100%.
Work on `CCCCCCCCOC(=O)C(C)Oc1ccc(Oc2ccc(Br)cc2F)cc1` (centres unmarked) [O(CH2)7 CH3] yielded a plant injury at 70 g/ha (Wheat) of 0%, a plant injury at 140 g/ha (Wheat) of 0% and a plant injury at 280 g/ha (Wheat) of 0%. The plant injury at 560 g/ha (Wheat) was 0%, the plant injury at 1120 g/ha (Wheat) was 90% and the pest or weed control at 70 g/ha (Johnson Grass) was 0%. The pest or weed control at 140 g/ha (Johnson Grass) was 0%, the pest or weed control at 280 g/ha (Johnson Grass) was 100% and the pest or weed control at 560 g/ha (Johnson Grass) was 100%. It also gave a pest or weed control at 1120 g/ha (Johnson Grass) of 100%, a pest or weed control at 70 g/ha (Wild Oats) of 0% and a pest or weed control at 140 g/ha (Wild Oats) of 0%. The pest or weed control at 280 g/ha (Wild Oats) was 100%, the pest or weed control at 560 g/ha (Wild Oats) was 100% and the pest or weed control at 1120 g/ha (Wild Oats) was 100%. The pest or weed control at 70 g/ha (Yellow Foxtail) was 0%, the pest or weed control at 140 g/ha (Yellow Foxtail) was 0% and the pest or weed control at 280 g/ha (Yellow Foxtail) was 80%. For the same molecule, the pest or weed control at 560 g/ha (Yellow Foxtail) was 90%, the pest or weed control at 1120 g/ha (Yellow Foxtail) was 100% and the pest or weed control at 70 g/ha (Barnyard Grass) was 9%. The pest or weed control at 140 g/ha (Barnyard Grass) was 95%, the pest or weed control at 280 g/ha (Barnyard Grass) was 100% and the pest or weed control at 560 g/ha (Barnyard Grass) was 100%. The pest or weed control at 1120 g/ha (Barnyard Grass) was 100%.
`C=CCOC(=O)C(C)Oc1ccc(Oc2ccc(Br)cc2F)cc1` (centres unmarked) [OCH2 CCH2] was tested, and the plant injury at 70 g/ha (Wheat) was 0%, the plant injury at 140 g/ha (Wheat) was 0% and the plant injury at 280 g/ha (Wheat) was 0%. It also gave a plant injury at 560 g/ha (Wheat) of 0%, a plant injury at 1120 g/ha (Wheat) of 70% and a pest or weed control at 70 g/ha (Johnson Grass) of 0%. The pest or weed control at 140 g/ha (Johnson Grass) was 0%, the pest or weed control at 280 g/ha (Johnson Grass) was 80% and the pest or weed control at 560 g/ha (Johnson Grass) was 90%. For the same molecule, the pest or weed control at 1120 g/ha (Johnson Grass) was 100%, the pest or weed control at 70 g/ha (Wild Oats) was 0% and the pest or weed control at 140 g/ha (Wild Oats) was 0%. The pest or weed control at 280 g/ha (Wild Oats) was 40%, the pest or weed control at 560 g/ha (Wild Oats) was 70% and the pest or weed control at 1120 g/ha (Wild Oats) was 70%. The pest or weed control at 70 g/ha (Yellow Foxtail) was 30%, the pest or weed control at 140 g/ha (Yellow Foxtail) was 30% and the pest or weed control at 280 g/ha (Yellow Foxtail) was 90%. It also gave a pest or weed control at 560 g/ha (Yellow Foxtail) of 100%, a pest or weed control at 1120 g/ha (Yellow Foxtail) of 100% and a pest or weed control at 70 g/ha (Barnyard Grass) of 95%. The pest or weed control at 140 g/ha (Barnyard Grass) was 100%, the pest or weed control at 280 g/ha (Barnyard Grass) was 100% and the pest or weed control at 560 g/ha (Barnyard Grass) was 100%. The pest or weed control at 1120 g/ha (Barnyard Grass) was 100%.
Work on `C#CCOC(=O)C(C)Oc1ccc(Oc2ccc(Br)cc2F)cc1` (centres unmarked) [OCH2CCH] yielded a plant injury at 70 g/ha (Wheat) of 0%, a plant injury at 140 g/ha (Wheat) of 0% and a plant injury at 280 g/ha (Wheat) of 0%. It also gave a plant injury at 560 g/ha (Wheat) of 0%, a plant injury at 1120 g/ha (Wheat) of 0% and a pest or weed control at 70 g/ha (Johnson Grass) of 0%. The pest or weed control at 140 g/ha (Johnson Grass) was 20%, the pest or weed control at 280 g/ha (Johnson Grass) was 50% and the pest or weed control at 560 g/ha (Johnson Grass) was 100%. It also gave a pest or weed control at 1120 g/ha (Johnson Grass) of 100%, a pest or weed control at 70 g/ha (Wild Oats) of 0% and a pest or weed control at 280 g/ha (Wild Oats) of 50%. For the same molecule, the pest or weed control at 560 g/ha (Wild Oats) was 50%, the pest or weed control at 1120 g/ha (Wild Oats) was 70% and the pest or weed control at 70 g/ha (Yellow Foxtail) was 0%. For the same molecule, the pest or weed control at 140 g/ha (Yellow Foxtail) was 60%, the pest or weed control at 280 g/ha (Yellow Foxtail) was 95% and the pest or weed control at 560 g/ha (Yellow Foxtail) was 100%. It also gave a pest or weed control at 1120 g/ha (Yellow Foxtail) of 100%, a pest or weed control at 70 g/ha (Barnyard Grass) of 0% and a pest or weed control at 140 g/ha (Barnyard Grass) of 20%. For the same molecule, the pest or weed control at 280 g/ha (Barnyard Grass) was 100%, the pest or weed control at 560 g/ha (Barnyard Grass) was 100% and the pest or weed control at 1120 g/ha (Barnyard Grass) was 100%.
